This note sets out measurements from patent US12351588B2, “Salt forms and solvates of Mcl-1 antagonists” (AMGEN INC., priority 2022, dated 2025).

Data set [1] in a line: Solubility of AMG 176 Form 1 in water under neutral conditions. The data set is classed as physicochemical.
Data set [2] is described as follows: Moisture sorption (DVS, VTI vapor sorption analyzer). The data set is classed as physicochemical. The note with it: for weight gain (moisture sorption profile): by 95% relative humidity, 25° C. The procedure:
Moisture Sorption: Moisture sorption data was collected at 25° C. using a VTI vapor sorption analyzer. A sample size of approximately 4-10 mg was used in a standard platinum pan. Hygroscopicity was evaluated from 5 to 95% RH in increments of 5% RH. Data for adsorption and desorption cycles were collected. Equilibrium criteria were set at 0.001% weight change in 10 minute with a maximum equilibration time of 180 minutes.

Molecules are shown by their SMILES. Counter-ions that a name gives are not always drawn. Bounds are passed on as bounds.

What is called solubility is how much of the substance goes into solution per volume. Read a high solubility as much dissolved substance. With `CO[C@H]1/C=C/C[C@H](C)[C@@H](C)S(=O)(=O)NC(=O)c2ccc3c(c2)N(C[C@@H]2CC[C@H]21)C[C@@]1(CCCc2cc(Cl)ccc21)CO3` [AMG 176 Form 1], the solubility in data set [1] was < 0.1 µg/mL.
As for `CO[C@H]1/C=C/C[C@H](C)[C@@H](C)S(=O)(=O)NC(=O)c2ccc3c(c2)N(C[C@@H]2CC[C@H]21)C[C@@]1(CCCc2cc(Cl)ccc21)CO3` [crystalline ammonium salt form of AMG 176], the “weight gain (moisture sorption profile)” value in data set [2] is recorded as “about 1.2%”.
Turning to `CO[C@H]1/C=C/C[C@H](C)[C@@H](C)S(=O)(=O)NC(=O)c2ccc3c(c2)N(C[C@@H]2CC[C@H]21)C[C@@]1(CCCc2cc(Cl)ccc21)CO3` [crystalline potassium salt hydrate form of AMG 176], the “weight gain (moisture sorption profile)” value in data set [2] is “about 5%”. Moreover, the “fate of the sorbed weight gain upon desorption” value in data set [2] (desorption after sorption to 95% relative humidity) is “lost upon desorption”.
